The results in this text go back to patent US11078170B2 (Assembly Biosciences, Inc., priority 2017, dated 2021).

This test has as its system HBV viral production from HepAD38 cells. Briefly: Activity of test compounds on viral production from HepAD38 cells (viral load by qPCR of HBV core sequence in supernatant). Type of test: cell-based. The following applies: Hepatitis B virus, 120 h, 5 days incubation, HBV DNA in supernatant by qPCR, top concentration 10 μM, read-out: Viral Load EC50 Activity range. Summed up: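 EC50 and CC50 come from four-parameter fits of supernatant viral load and CellTiter-Glo viability, respectively. Viral load was measured by core-region TaqMan qPCR against HBV DNA standards and compared with DMSO controls. Tet-free HepAD38 cells (50,000/well, 2% FBS) were exposed to compound, highest 10 μM, for 5 days at 37° C.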
(Quantitative PCR measures a nucleic acid by following its amplification.)
A word on the EC50: it is the midpoint of the concentration-response curve. For the compound `CN1[C@H](C(=O)Nc2ccc(F)c(Cl)c2)C[C@H](c2ccccn2)NS1(=O)=O` [HBV-CSU-031-ISO-I, Cis-N-(3-Chloro-4-fluorophenyl)-2-methyl-5-(pyridin-2-yl)-1,2,6-thiadiazinane-3-carboxamide 1,1-dioxide], the EC50 is less than 1 µM.

Take `CN1C(C(=O)Nc2ccc(F)c(Cl)c2)CC(c2ncc(-c3ccc(Br)c(F)c3)s2)NS1(=O)=O` (racemic) [HBV-CSU-173, Cis-5-(5-(4-Bromo-3-fluorophenyl)thiazol-2-yl)-N-(3-chloro-4-fluorophenyl)-2-methyl-1,2,6-thiadiazinane-3-carboxamide 1,1-dioxide]: the EC50 is less than 1 µM.

Regarding `[2H]C1C([2H])(c2ccc(-c3cn(C([2H])([2H])[2H])cn3)s2)NS(=O)(=O)N(C)C1([2H])C(=O)Nc1ccc(F)c(Cl)c1` (stereo not drawn) [HBV-CSU-376, Cis-N-(3-Chloro-4-fluorophenyl)-2-methyl-5-(5-(1-(methyl-d3)-1H-imidazol-4-yl)thiophen-2-yl)-1,2,6-thiadiazinane-3,4,5-d3-3-carboxamide 1,1-dioxide], the EC50 is less than 1 µM.

In the case of `Cc1c(-c2ccc([C@@H]3C[C@H](C(=O)Nc4ccc(F)c(Cl)c4)N(C)S(=O)(=O)N3)s2)cnn1C` [HBV-CSU-312-ISO-II, Cis-N-(3-chloro-4-fluorophenyl)-5-(5-(1,5-dimethyl-1H-pyrazol-4-yl)thiophen-2-yl)-2-methyl-1,2,6-thiadiazinane-3-carboxamide 1,1-dioxide], the half-maximal effective concentration (EC50) fell in the range of 1 to 5 µM.

Turning to `CN1[C@@H](C(=O)Nc2ccc(F)c(Cl)c2)C[C@@H](c2ccc(-c3cn(C)cn3)s2)NS1(=O)=O` [HBV-CSU-266-ISO-II, Cis-N-(3-Chloro-4-fluorophenyl)-2-methyl-5-(5-(1-methyl-1H-imidazol-4-yl)thiophen-2-yl)-1,2,6-thiadiazinane-3-carboxamide 1,1-dioxide], the 50% effective concentration (EC50) fell in the range of 1 to 5 µM.

For `CN1[C@H](C(=O)Nc2ccc(F)c(Cl)c2)C[C@H](c2cccc(Cl)c2)NS1(=O)=O` [HBV-CSU-261-ISO-I, Cis-N-(3-Chloro-4-fluorophenyl)-5-(3-chlorophenyl)-2-methyl-1,2,6-thiadiazinane-3-carboxamide 1,1-dioxide], the EC50 was less than 1 µM.

As for `CN1C(C(=O)Nc2ccc(F)c(Cl)c2)CC(c2ncc(-c3ccnn3C)s2)NS1(=O)=O` (racemic) [HBV-CSU-281, Cis-N-(3-Chloro-4-fluorophenyl)-2-methyl-5-(5-(1-methyl-1H-pyrazol-5-yl)thiazol-2-yl)-1,2,6-thiadiazinane-3-carboxamide 1,1-dioxide], the EC50 is less than 1 µM.

On to `CN1[C@H](C(=O)Nc2ccc(F)c(Cl)c2)C[C@H](c2ncc(-c3cn(C)cn3)s2)NS1(=O)=O` [HBV-CSU-276-ISO-I, (3S,5R)-N-(3-chloro-4-fluorophenyl)-2-methyl-5-(5-(1-methyl-1H-imidazol-4-yl)thiazol-2-yl)-1,2,6-thiadiazinane-3-carboxamide 1,1-dioxide], for which the half-maximal effective concentration (EC50) was less than 1 µM.

As to `CN1[C@@H](C(=O)Nc2ccc(F)c(Cl)c2)C[C@@H](c2cnc(-c3ccccc3)s2)NS1(=O)=O` [HBV-CSU-235-ISO-II, N-(3-Chloro-4-fluorophenyl)-2-methyl-5-(2-phenylthiazol-5-yl)-1,2,6-thiadiazinane-3-carboxamide 1,1-dioxide], the EC50 is more than 5 µM.

In the case of `CN1[C@@H](C(=O)Nc2ccc(F)c(Cl)c2)C[C@@H](c2ccc(C(N)=O)cc2)NS1(=O)=O` [HBV-CSU-214-ISO-I, Cis-5-(4-Carbamoylphenyl)-N-(3-chloro-4-fluorophenyl)-2-methyl-1,2,6-thiadiazinane-3-carboxamide 1,1-dioxide], the EC50 is more than 5 µM.

In the case of `COCCN1C(C(=O)Nc2ccc(F)c(Cl)c2)CC(c2cccs2)NS1(=O)=O` (racemic) [HBV-CSU-025, Cis-N-(3-chloro-4-fluorophenyl)-2-(2-methoxyethyl)-5-(thiophen-2-yl)-1,2,6-thiadiazinane-3-carboxamide 1,1-dioxide], the EC50 was less than 1 µM.

As for `CN1[C@@H](C(=O)Nc2ccc(F)c(Cl)c2)C[C@@H](c2ccccc2)NS1(=O)=O` [HBV-CSU-113-ISO-II, Cis-N-(3-chloro-4-fluorophenyl)-2-methyl-5-phenyl-1,2,6-thiadiazinane-3-carboxamide 1,1-dioxide], the concentration giving a half-maximal response (EC50) was more than 5 µM.

As for `CN1[C@@H](C(=O)Nc2ccc(F)c(Cl)c2)C[C@@H](c2ncc(-c3ccccc3)s2)NS1(=O)=O`, the EC50 lay within 1 to 5 µM.

Take `CCOCCN1[C@@H](C(=O)Nc2ccc(F)c(Cl)c2)C[C@@H](c2nccs2)NS1(=O)=O` [HBV-CSU-142-ISO-I, Cis-N-(3-Chloro-4-fluorophenyl)-2-(2-ethoxyethyl)-5-(thiazol-2-yl)-1,2,6-thiadiazinane-3-carboxamide 1,1-dioxide]: the EC50 is 1 to 5 µM.

For `COCCN1[C@H](C(=O)Nc2ccc(F)c(Br)c2)C[C@H](c2nccs2)NS1(=O)=O` [HBV-CSU-059-ISO-II, Cis-N-(3-bromo-4-fluorophenyl)-2-(2-methoxyethyl)-5-(thiazol-2-yl)-1,2,6-thiadiazinane-3-carboxamide 1,1-dioxide], the EC50 is less than 1 µM.

With `CN1[C@@H](C(=O)Nc2ccc(F)c(Cl)c2)C[C@@H](c2cc(-c3ccnn3C)cs2)NS1(=O)=O` [HBV-CSU-289-ISO-II, Cis-N-(3-chloro-4-fluorophenyl)-2-methyl-5-(4-(1-methyl-1H-pyrazol-5-yl)thiophen-2-yl)-1,2,6-thiadiazinane-3-carboxamide 1,1-dioxide], the EC50 lay within 1 to 5 µM.

Take `CN1[C@H](C(=O)Nc2ccc(F)c(Cl)c2)C[C@H](c2ncc(-c3cnn(C)c3)s2)NS1(=O)=O` [HBV-CSU-177-ISO-I, Cis-N-(3-Chloro-4-fluorophenyl)-2-methyl-5-(5-(1-methyl-1H-pyrazol-4-yl)thiazol-2-yl)-1,2,6-thiadiazinane-3-carboxamide 1,1-dioxide]: the EC50 is less than 1 µM.

Take `Cc1nn(C)c(C)c1-c1ccc([C@@H]2C[C@H](C(=O)Nc3ccc(F)c(Cl)c3)N(C)S(=O)(=O)N2)s1` [HBV-CSU-314-ISO-II, Cis-N-(3-chloro-4-fluorophenyl)-2-methyl-5-(5-(1,3,5-trimethyl-1H-pyrazol-4-yl)thiophen-2-yl)-1,2,6-thiadiazinane-3-carboxamide 1,1-dioxide]: the EC50 lay within 1 to 5 µM.

Turning to `COCCCN1[C@H](C(=O)Nc2ccc(F)c(Cl)c2)C[C@H](c2nccs2)NS1(=O)=O` [HBV-CSU-077-ISO-II, Cis-N-(3-Chloro-4-fluorophenyl)-2-(3-methoxypropyl)-5-(thiazol-2-yl)-1,2,6-thiadiazinane-3-carboxamide 1,1-dioxide], the EC50 is less than 1 µM.

On to `[2H]C1[C@]([2H])(c2ccc(-c3cn(C)cn3)s2)NS(=O)(=O)N(C)[C@]1([2H])C(=O)Nc1ccc(F)c(Cl)c1` (stereo in doubt) [HBV-CSU-375-ISO-I, Cis-N-(3-Chloro-4-fluorophenyl)-2-methyl-5-(5-(1-methyl-1H-imidazol-4-yl)thiophen-2-yl)-1,2,6-thiadiazinane-3,4,5-d3-3-carboxamide 1,1-dioxide], for which the half-maximal effective concentration (EC50) is less than 1 µM.

Take `CN1[C@H](C(=O)Nc2ccc(F)c(Cl)c2)C[C@H](c2cccc(-c3cnn(C)c3)c2)NS1(=O)=O` [HBV-CSU-247-ISO-I, Cis-N-(3-chloro-4-fluorophenyl)-2-methyl-5-(3-(1-methyl-1H-pyrazol-4-yl)phenyl)-1,2,6-thiadiazinane-3-carboxamide 1,1-dioxide]: the EC50 was more than 5 µM.
